Measurements from paper PMC6155683, “Pharmacokinetics Studies of 12 Alkaloids in Rat Plasma after Oral Administration of Zuojin and Fan-Zuojin Formulas” (Molecules : A Journal of Synthetic Chemistry and Natural …, 2017).
Like-named read-outs stand apart in the source and are kept apart here. Each block holds one compound with its values, some of them ahead of it.

Experiments:
Caco-2 cell monolayer = conditions: cited from earlier work
[1] = Stability of analytes in rat plasma under storage conditions; type: physicochemical; conditions: n = 6; for Stability RE, 3 freeze-thaw cycles / Stability RE, 30 days at −20 °C: rat plasma; for Stability RE, processed samples' stability: room temperature 24 h
Experimental: The stabilities of analytes in plasma were assessed by analyzing the QC samples at three concentration levels under the following storage conditions: after three freeze (−20 °C)-thaw (room temperature) cycles; stored at −20 °C for 30 days, and comparing the results with those of freshly prepared QC samples. Stabilities of the processed samples at room temperature for 24 h were also assessed.

[2] = PK study of the 12 alkaloids in rat plasma after oral administration of ZJ and FZJ extract (LC–MS/MS); type: in vivo
Experimental: The time schedule included 15 time-points and six rats were sampled at each time-point. All the rats were orally administered with ZJ extract (suspended in water) at a dose of 3.38 g/kg body weight (dosages of the 12 alkaloids were shown in Table S4), equivalent to crude drug dose of 12 g/kg body weight. Blood samples were collected from the suborbital vein of the rats at 10, 20, 30, 60, 90, 120, 180, 240, 300, 330, 360, 480, 720, 1440, 2160 min after administration, and centrifuged immediately at 5000 rpm for 10 min. The plasma samples were stored at −20 °C until analysis.
Similarly, the time schedule of other rats included 15 time-points and six rats were orally administered with FZJ extract at a dose of 3.76 g/kg body weight (also equivalent to crude drug dose of 12 g/kg body weight, Table S4). Blood samples were collected and treated as mentioned above in the PK study of ZJ extract.
PK parameters of the 12 alkaloids including AUC0→t, AUC0→∞, mean retention time (MRT0→t, MRT0→∞), and elimination half-life (t1/2) were calculated with non-compartmental method by DAS 2.0 software (Mathematical Pharmacology Professional Committee of China, Shanghai, China). Maximum plasma drug concentration (Cmax) and time to reach the maximum plasma drug concentration (Tmax) were observed directly from the detected C–T data. The results were expressed as arithmetic mean ± standard deviation (SD).

[3] = jejunum vs ileum and colon; cited from earlier work
[4] = cited from earlier work
P-gp = conditions: not told; cited from earlier work
[5] = cited from earlier work; remark: listed apart in the source
[6] = cited from earlier work; remark: listed apart in the source

- Stability RE, 3 freeze-thaw cycles ([1]; high QC concentration): 5.86%
- Stability RE, 30 days at −20 °C ([1]; high QC concentration): 4.85%
- Stability RE, 3 freeze-thaw cycles ([1]; low QC concentration): 4.36%
- Stability RE, 30 days at −20 °C ([1]; low QC concentration): −6.34%
- Stability RE, 3 freeze-thaw cycles ([1]; medium QC concentration): 14.45%
- Stability RE, 30 days at −20 °C ([1]; medium QC concentration): −1.12%
- Stability RE, processed samples' stability ([1]; high QC concentration): −1.09%
- Stability RE, processed samples' stability ([1]; low QC concentration): −0.76%
- Stability RE, processed samples' stability ([1]; medium QC concentration): 4.78%
- Csec (drug concentration of the secondary peak in C–T curve) ([2]; rat, in vivo, po): 117.29 ± 45.45 ng/mL
- Tsec (time of the secondary peak in C–T curve) ([2]; rat, in vivo, po): 90 min
- AUC(0-inf) ([2]; rat, in vivo, po, 3.38 g/kg): 537 ± 55 ng·h/mL
- AUC(0-t) ([2]; rat, in vivo, po, 3.38 g/kg): 532 ± 57.8 ng·h/mL
- Cmax ([2]; rat, in vivo, po, 3.38 g/kg): 155 ± 27.9 ng/mL
- MRT inf ([2]; rat, in vivo, po, 3.38 g/kg): 4.71 h
- MRT last ([2]; rat, in vivo, po, 3.38 g/kg): 4.34 h
- Tmax ([2]; rat, in vivo, po, 3.38 g/kg): 4 h
- half-life ([2]; rat, in vivo, po, 3.38 g/kg): 3.21 ± 2.27 h
- AUC(0-inf) ([2]; rat, in vivo, po, 3.76 g/kg): 286 ± 24.1 ng·h/mL
- AUC(0-t) ([2]; rat, in vivo, po, 3.76 g/kg): 275 ± 23.2 ng·h/mL
- Cmax ([2]; rat, in vivo, po, 3.76 g/kg): 85.3 ± 13.4 ng/mL
- MRT inf ([2]; rat, in vivo, po, 3.76 g/kg): 5.96 h
- MRT last ([2]; rat, in vivo, po, 3.76 g/kg): 4.66 h
- Tmax ([2]; rat, in vivo, po, 3.76 g/kg): 1.5 h
- half-life ([2]; rat, in vivo, po, 3.76 g/kg): 5.03 ± 2.87 h
Structure (SMILES): C[n+]1c2n(c(=O)c3ccccc31)CCc1c-2[nH]c2ccccc12 [dehydroevodiamine]
- Papp (Caco-2 cell monolayer): 12.6 ×10⁻⁶ cm/s

- Stability RE, 3 freeze-thaw cycles ([1]; high QC concentration): −14.86%
- Stability RE, 30 days at −20 °C ([1]; high QC concentration): −14.65%
- Stability RE, 3 freeze-thaw cycles ([1]; low QC concentration): 7.87%
- Stability RE, 30 days at −20 °C ([1]; low QC concentration): −8.36%
- Stability RE, 3 freeze-thaw cycles ([1]; medium QC concentration): −1.36%
- Stability RE, 30 days at −20 °C ([1]; medium QC concentration): −13.68%
- Stability RE, processed samples' stability ([1]; high QC concentration): −13.71%
- Stability RE, processed samples' stability ([1]; low QC concentration): 9.52%
- Stability RE, processed samples' stability ([1]; medium QC concentration): 4.57%
- AUC(0-t) ([2]; 3.38 g/kg, rat plasma, oral ZJ extract, mean ± SD, n = 6, read-out: AUC0→t): 277 ± 50.1 ng·h/mL
- AUC(0-inf) ([2]; 3.38 g/kg, rat plasma, oral ZJ extract, mean ± SD, n = 6, read-out: AUC0→∞): 300 ± 55.3 ng·h/mL
- Cmax ([2]; 3.38 g/kg, rat plasma, oral ZJ extract, mean ± SD, n = 6, read-out: Cmax): 109 ± 48.3 ng/mL
- MRT last ([2]; 3.38 g/kg, rat plasma, oral ZJ extract, mean ± SD, n = 6, read-out: MRT0→t (converted)): 6.46 h
- MRT inf ([2]; 3.38 g/kg, rat plasma, oral ZJ extract, mean ± SD, n = 6, read-out: MRT0→∞ (converted)): 8.58 h
- half-life ([2]; 3.38 g/kg, rat plasma, oral ZJ extract, mean ± SD, n = 6, read-out: t1/2): 6.3 ± 3.24 h
- Tmax ([2]; 3.38 g/kg, rat plasma, oral ZJ extract, read-out: Tmax (converted)): 1.5 h
- AUC(0-t) ([2]; 3.76 g/kg, rat plasma, oral FZJ extract, mean ± SD, n = 6, read-out: AUC0→t): 48.1 ± 9.6 ng·h/mL
- AUC(0-inf) ([2]; 3.76 g/kg, rat plasma, oral FZJ extract, mean ± SD, n = 6, read-out: AUC0→∞): 50.2 ± 10.7 ng·h/mL
- Cmax ([2]; 3.76 g/kg, rat plasma, oral FZJ extract, mean ± SD, n = 6, read-out: Cmax): 23.7 ± 7.42 ng/mL
- MRT last ([2]; 3.76 g/kg, rat plasma, oral FZJ extract, mean ± SD, n = 6, read-out: MRT0→t (converted)): 4.07 h
- MRT inf ([2]; 3.76 g/kg, rat plasma, oral FZJ extract, mean ± SD, n = 6, read-out: MRT0→∞ (converted)): 4.68 h
- half-life ([2]; 3.76 g/kg, rat plasma, oral FZJ extract, mean ± SD, n = 6, read-out: t1/2): 2.22 ± 0.835 h
- Tmax ([2]; 3.76 g/kg, rat plasma, oral FZJ extract, read-out: Tmax (converted)): 3 h
- Tsec (time of the secondary peak in C–T curve) ([2]; rat plasma, oral FZJ extract): 30 min
- Csec (drug concentration of the secondary peak in C–T curve) ([2]; rat plasma, oral FZJ extract, mean ± SD, n = 6): 11.64 ± 7.28 ng/mL
- Tsec (time of the secondary peak in C–T curve) ([2]; rat plasma, oral ZJ extract): 300 min
- Csec (drug concentration of the secondary peak in C–T curve) ([2]; rat plasma, oral ZJ extract, mean ± SD, n = 6): 44.68 ± 21.28 ng/mL
Structure (SMILES): COc1ccc2cc3[n+](cc2c1OC)CCc1cc2c(cc1-3)OCO2 [berberine]
- absorption rate constant (Ka) compared between intestinal sites [3]: greater than that at ileum and colon
- berberine existed as prototype ([4]; 0–36 h after intragastric administration): at least 56%
- berberine remained in the GI tract ([4]; at 36 h after intragastric administration): 24%
- P-gp substrate (P-gp): P-gp substrates
- absolute bioavailability [5]: less than 1%
- primary elimination route in vivo [6]: renal excretion
